Reference: patent publication US9221800B2, “Isoxazole treatments for diabetes” (The Board of Regents of the University of Texas System, priority 2011, dated 2015)

What was measured:
[1] = test system: insulin gene promoter; experiment: ChIP analysis of association with the insulin promoter in MIN6 cells; assay type: cell-based, mouse
Method: ChIP was as described (Lawrence et al., 2008) with the following modifications. Chromatin was cross-linked with 1% formaldehyde and sonicated with a Bioruptor 200 (Diagenode) in an ice cold water bath. Antibodies immobilized on protein A-Sepharose beads were used for immunoprecipitation. ChIP products were analyzed by real-time Q-PCR as previously described for real-time PCR analysis (Lawrence et al., 2008) using the following primers (5′-CAGACCTAGCACCAGGG-3′ (SEQ ID NO:1) and 5′-GGACTTTGCTGTTTGTCCC-3′ (SEQ ID NO:2)) to amplify the −157/−50 fragment of the mouse insulin promoter encompassing the C1 (MafA), E1 (BETA2) and A1 (PDX-1) binding sites. The results were expressed relative to input and presented as mean+/− SEM of at least two independent experiments in triplicate.

[2] = target: T1, CBP (Homo sapiens, UniProt Q92793); experiment: HAT activity of HATs expressed in 293 cells; assay type: cell-based; conditions: combination of ERK2 expression and Isx, 24 h (FIG. 8)
T1 construct: expressed in transfected cells; host or cells: HEK293
T1 sequence (Q92793 whole entry): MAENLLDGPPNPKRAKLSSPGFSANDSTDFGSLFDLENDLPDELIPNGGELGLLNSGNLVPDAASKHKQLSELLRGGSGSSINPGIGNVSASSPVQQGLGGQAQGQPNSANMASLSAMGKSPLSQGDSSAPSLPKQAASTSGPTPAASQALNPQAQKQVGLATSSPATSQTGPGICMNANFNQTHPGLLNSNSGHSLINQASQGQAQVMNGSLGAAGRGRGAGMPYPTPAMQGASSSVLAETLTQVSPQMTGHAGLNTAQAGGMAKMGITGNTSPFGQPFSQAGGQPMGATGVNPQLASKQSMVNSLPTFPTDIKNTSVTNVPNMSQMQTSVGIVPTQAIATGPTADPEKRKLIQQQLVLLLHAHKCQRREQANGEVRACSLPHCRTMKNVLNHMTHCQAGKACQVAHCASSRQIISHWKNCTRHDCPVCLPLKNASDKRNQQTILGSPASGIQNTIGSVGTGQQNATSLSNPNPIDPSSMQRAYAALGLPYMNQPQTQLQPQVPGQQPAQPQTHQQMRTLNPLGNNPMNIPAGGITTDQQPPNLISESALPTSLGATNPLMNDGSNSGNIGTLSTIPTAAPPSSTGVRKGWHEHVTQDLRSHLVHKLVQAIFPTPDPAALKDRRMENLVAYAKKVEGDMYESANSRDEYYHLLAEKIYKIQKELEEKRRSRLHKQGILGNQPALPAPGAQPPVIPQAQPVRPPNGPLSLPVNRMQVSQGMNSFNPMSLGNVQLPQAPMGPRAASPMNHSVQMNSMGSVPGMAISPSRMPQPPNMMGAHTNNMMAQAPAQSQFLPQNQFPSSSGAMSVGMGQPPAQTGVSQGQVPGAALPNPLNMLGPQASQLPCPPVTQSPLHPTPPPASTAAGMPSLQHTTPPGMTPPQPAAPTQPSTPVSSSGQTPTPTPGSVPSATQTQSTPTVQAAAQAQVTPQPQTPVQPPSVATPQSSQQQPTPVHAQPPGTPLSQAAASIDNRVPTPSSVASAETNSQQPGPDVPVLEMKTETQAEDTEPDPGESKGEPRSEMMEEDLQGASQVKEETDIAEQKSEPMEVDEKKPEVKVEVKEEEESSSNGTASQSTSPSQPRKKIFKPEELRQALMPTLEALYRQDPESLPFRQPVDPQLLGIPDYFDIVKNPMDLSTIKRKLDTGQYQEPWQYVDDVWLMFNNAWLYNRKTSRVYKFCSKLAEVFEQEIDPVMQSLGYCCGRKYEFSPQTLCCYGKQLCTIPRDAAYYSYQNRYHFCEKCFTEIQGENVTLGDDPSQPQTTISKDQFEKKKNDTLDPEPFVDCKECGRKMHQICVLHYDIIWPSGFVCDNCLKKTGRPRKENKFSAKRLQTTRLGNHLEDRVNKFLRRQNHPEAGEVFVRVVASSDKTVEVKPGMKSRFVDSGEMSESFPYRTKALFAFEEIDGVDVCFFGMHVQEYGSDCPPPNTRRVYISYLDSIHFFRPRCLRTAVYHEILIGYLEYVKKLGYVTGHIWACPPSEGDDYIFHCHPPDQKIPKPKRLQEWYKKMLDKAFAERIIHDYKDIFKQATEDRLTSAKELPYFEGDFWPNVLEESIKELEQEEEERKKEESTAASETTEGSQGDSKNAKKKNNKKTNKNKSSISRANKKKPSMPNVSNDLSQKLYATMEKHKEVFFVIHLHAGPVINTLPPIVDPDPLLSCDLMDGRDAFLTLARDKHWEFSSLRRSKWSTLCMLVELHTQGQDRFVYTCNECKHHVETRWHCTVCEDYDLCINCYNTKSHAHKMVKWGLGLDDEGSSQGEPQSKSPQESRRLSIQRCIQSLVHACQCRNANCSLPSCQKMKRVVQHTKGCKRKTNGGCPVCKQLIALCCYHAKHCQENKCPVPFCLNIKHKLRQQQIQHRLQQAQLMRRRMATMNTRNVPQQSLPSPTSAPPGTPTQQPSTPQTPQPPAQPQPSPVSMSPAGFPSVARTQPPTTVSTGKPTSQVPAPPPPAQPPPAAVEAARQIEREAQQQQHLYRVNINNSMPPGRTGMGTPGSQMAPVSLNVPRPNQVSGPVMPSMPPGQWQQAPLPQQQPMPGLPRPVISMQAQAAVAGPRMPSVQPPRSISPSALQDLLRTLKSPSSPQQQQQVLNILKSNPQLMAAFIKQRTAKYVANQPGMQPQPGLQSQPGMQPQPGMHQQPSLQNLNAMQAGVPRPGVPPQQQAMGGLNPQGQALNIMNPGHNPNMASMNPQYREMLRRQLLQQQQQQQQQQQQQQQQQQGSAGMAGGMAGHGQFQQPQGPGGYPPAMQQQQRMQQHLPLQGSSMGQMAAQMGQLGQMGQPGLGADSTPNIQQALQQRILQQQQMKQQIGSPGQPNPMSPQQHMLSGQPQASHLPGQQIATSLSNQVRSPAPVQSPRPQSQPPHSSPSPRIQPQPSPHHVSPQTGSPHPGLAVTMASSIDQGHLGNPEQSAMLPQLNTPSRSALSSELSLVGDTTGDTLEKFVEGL
Method: (§1) (FIG. 8A) Combined effect of Isx treatment for 24 h and WT ERK2 (W) or kinase dead K52R ERK2 (R) on the HAT activities of p300, and (FIG. 8B) other HATs, CBP, PCAF and GCN5-L2, transfected in HEK293 cells.

[3] = test system: BETA2; experiment: Acetylation of BETA2 (anti-myc immunoprecipitates, anti-acetyl lysine immunoblot); assay type: cell-based; conditions: cells overexpressing myc-BETA2 (FIG. 3C)
Method: FIGS. 3A-E. Isx (LSH-1) activates transcription factors that regulate insulin gene expression and insulin production. (FIG. 3A) Insulin promoter reporter activity in HEK293 cells transfected with BETA2, MafA, PDX-1, or (FIG. 3B) WT MafA or mutant MafA, treated with Isx or vehicle for 24 h. (FIG. 3C) Immunoblotting of anti-myc immunoprecipates using anti-acetyl lysine (Ac-K) and anti-BETA2 from cells overexpressing myc-BETA2. (FIG. 3D) Chromatin immunoprecipitation (ChIP) analysis of MafA and BETA2 (FIG. 3E) association with the insulin promoter in MIN6 cells in response to a 10-min glucose stimulation.

[4] = test system: rat insulin 1 promoter-luciferase reporter (pGL3-rIns -410, +1); experiment: Insulin promoter luciferase reporter assay in HEK293 cells; assay type: cell-based
Method: HEK 293 cells (0.15×10^6 cells) in triplicate were transfected with the pGL3-rIns reporter construct (0.1 μg/well) (Stratagene) and cotransfected with 0.5 μg/well of either empty vector (pcDNA3.1) or vectors encoding BETA2:myc, MafA:myc or PDX-1:myc using Lipofectamine 2000 (Invitrogen). After 24 h, cells were stimulated with 20 μM Isx or DMSO for another 24 h. Luciferase activity was measured using the dual luciferase reporter system (Promega) with Renilla Luciferase as an internal control.

[5] = test system: HDAC; experiment: HDAC activity in nuclear extracts of treated MIN6 cells; assay type: cell-based, mouse; conditions: 24 h treatment, TSA 2 μM positive control (FIG. 4B)
Method: The histone acetyl transferase and deacetylase activities were measured in 50 μg of nuclear protein using the HAT and HDAC activity colorimetric assay kits from Biovision Biotechnology according to manufacturer's recommendations.

[6] = target: T2, PCAF (Homo sapiens, UniProt Q92831); experiment: HAT activity of HATs expressed in 293 cells; assay type: cell-based; conditions: combination of ERK2 expression and Isx, 24 h (FIG. 8)
T2 construct: expressed in transfected cells; host or cells: HEK293
T2 sequence (Q92831 whole entry, species assumed): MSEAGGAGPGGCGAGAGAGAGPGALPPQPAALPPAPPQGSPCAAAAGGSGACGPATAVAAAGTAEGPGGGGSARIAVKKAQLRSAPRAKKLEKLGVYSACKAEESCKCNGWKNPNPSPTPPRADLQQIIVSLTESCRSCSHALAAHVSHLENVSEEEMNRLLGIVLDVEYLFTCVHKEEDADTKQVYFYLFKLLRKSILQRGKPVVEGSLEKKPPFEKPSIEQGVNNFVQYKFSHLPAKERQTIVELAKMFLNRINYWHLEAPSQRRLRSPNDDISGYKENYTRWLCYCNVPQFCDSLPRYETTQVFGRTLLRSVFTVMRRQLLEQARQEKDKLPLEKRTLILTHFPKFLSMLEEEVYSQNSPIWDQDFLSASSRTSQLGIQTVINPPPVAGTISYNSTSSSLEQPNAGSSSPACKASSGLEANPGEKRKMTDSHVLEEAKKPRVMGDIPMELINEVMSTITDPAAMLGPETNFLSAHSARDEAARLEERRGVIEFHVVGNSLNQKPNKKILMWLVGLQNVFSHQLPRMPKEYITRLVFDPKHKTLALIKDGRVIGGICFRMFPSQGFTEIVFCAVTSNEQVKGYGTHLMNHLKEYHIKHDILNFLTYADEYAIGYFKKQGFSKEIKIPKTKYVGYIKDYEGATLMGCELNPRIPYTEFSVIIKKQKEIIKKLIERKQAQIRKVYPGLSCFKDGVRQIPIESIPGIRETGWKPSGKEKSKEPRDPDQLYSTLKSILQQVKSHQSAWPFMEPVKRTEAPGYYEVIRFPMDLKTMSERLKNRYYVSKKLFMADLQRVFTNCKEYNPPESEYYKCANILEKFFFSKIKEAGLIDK
Method: as §1

[7] = test system: MIN6 cells; experiment: Quantitative RT-PCR of endogenous insulin gene expression in MIN6 cells; assay type: cell-based, mouse
Method: FIGS. 2A-E. Isx (LSH-1) activates insulin expression and improves β cell function in MIN6 cells. (FIG. 2A) Dose-response relationship of MIN6 cells treated with 5-80 μM Isx for 24 h or DMSO (0.08%—similar to the highest concentration of Isx). Whole cell lysates (40 μg) were subjected to immunoblotting using antibodies against BETA2NeuroD1, MafA, PDX-1, pERK1/2 (pT183/pY185), acetylated histones ACH4-K5K8K12K16 and ACH3K9 and total histone H3. (FIG. 2B) Quantitative RT-PCR of murine insulin1 and insulin2 gene expression in MIN6 cells treated with Isx for 24 h as in FIG. 2A. (FIG. 2C) GSIS in 15 min from MIN6 cells pretreated with Isx or vehicle for 48 h in the presence or absence of the MEK1/2 inhibitor U0126 for 24 h. (FIG. 2D) Insulin content measured by ELISA in MIN6 cells treated with Isx for 24 or 48 h. […]
Total RNA was extracted from human islet preparations with TRI reagent according to manufacturer's protocol (Ambion). cDNA was prepared from total RNA by a mixture of random hexamer- and oligo-dT-primed reverse transcription (iScript Biorad). The expression of insulin and glucagon relative to 18S RNA was evaluated by TaqMan assays (Applied Biosystems). Relative expression of pancreatic factors was determined using Power SYBR Green PCR Master Mix (Applied Bio systems). […]

[8] = test system: human islets; experiment: Immunohistochemical staining of cultured human islets; assay type: cell-based; conditions: islets in culture for 2 months, Isx for 2 days (FIG. 1E)
Method: FIGS. 1A-E. Isx (LSH-1) induces expression of insulin and transcription factors in primary cultured human islets. (FIG. 1A) Primary human islets that had been cultured in RPMI 160 for 6 months were treated with vehicle or 40 μM Isx for 1 or 2 d. Expression of human insulin and glucagon genes was assessed by Taqman quantitative RT-PCR. (FIG. 1B) Insulin secretion measured by ELISA over 24 h from islets treated with Isx or vehicle for 1 or 2 d. (FIG. 1C) Total insulin content of islets cultured for 3 mo and fresh islets, each treated for 48 h with Isx or DMSO. (FIG. 1D) Time course of pancreatic gene induction in islets cultured for 1 year treated with DMSO (8 days) or 40 μM Isx for 2, 4 or 8 days. (FIG. 1E) Immunohistochemical staining using antibodies against insulin, BETA2, Neurogenin3 (Ngn3) and MafA of islets cultured for 2 months and treated with Isx or vehicle for 48 h. Nuclei were stained with DAPI.

CBP HAT activity [2]: increased | PCAF HAT activity [6]: not
SMILES: O=C(NC1CC1)c1cc(-c2cccs2)on1 [Isx, N-cyclopropyl-5-(thiophen-2-yl)isoxazole-3-carboxamide]
Chromatin recruitment of p300 to the insulin promoter upon stimulation by glucose ([1]; Isx pretreatment 24 h): increased | chromatin binding of BETA2 and MafA to the insulin gene promoter ([1]; compared with glucose stimulation (FIGS. 3D-E)): Comparable or greater | acetylation of BETA2 [3]: more strongly than the HDAC inhibitor sodium butyrate | increase of the activity of PDX-1 (insulin gene reporter) by Isx ([4]; 20 μM Isx 24 h): two-fold or less | Insulin gene reporter activity increase by either BETA2 or MafA in the presence of Isx ([4]; 20 μM Isx 24 h (FIG. 3A, FIG. 7)): ≥ 4 fold | HDAC activity in MIN6 cells [5]: not affected | increase in preproinsulin mRNA ([7]; Isx 24 h (FIG. 2B)): ≤ 4 fold | concentration for optimal activation of endogenous insulin gene expression ([7]; MIN6 cells (FIG. 12)): 20 µM | Ngn3, BETA2, and insulin immunostaining [8]: obvious increase
